Laboratory results from patent US6413739B1, “AMPA-binding human GLuR3 receptors” (priority 1992, dated 2002).

Legend:
[1] = system: human GluR3A receptor; assay: AMPA-binding assay, membranes of transfected COS-1 cells
Protocol: (§1) Transfected cells in the frozen state were resuspended in ice-cold distilled water using a hand homogenizer, sonicated for 5 seconds, and then centrifuged for 20 minutes at 50,000 g. The supernatant was discarded and the membrane pellet stored frozen at −70 C.
(§2) COS cell membrane pellets were suspended in ice cold 50 mM Tris-HCl (pH 7.55, 5 C) and centrifuged again at 50,000 g for 10 minutes in order to remove endogenous glutamate that would compete for binding. Pellets were resuspended in ice cold 50 mM Tris-HCl (pH 7.55) buffer and the resultant membrane preparation was used as tissue source for binding experiments described below. Proteins were determined using the Pierce Reagent with BSA as standard.
Binding assays were then performed, using an amount of COS-derived membrane equivalent to from 25-100 ug as judged by protein determination and selected radiolabelled ligand. In particular, for AMPA-binding assays, incubation mixtures consisted of 25-100 ug tissue protein and D,L-alpha-[5-methyl-3H]amino-3-hydroxy-5-methylisoxazole-4-propionic acid (3H-AMPA, 27.6 Ci/mmole, 10 nM final) with 0.1 M KSCN and 2.5 mM CaCl2 in the 1 ml final volume. Non-specific […] binding was determined in the presence of 1 mM L-glutamate. […] Pellets were washed twice in 6 ml of the cold incubation buffer, then 5 ml of Beckman Ready-Protein Plus scintillation cocktail was added, for counting.

[2] = system: human GluR3B receptor; assay: binding assays with membrane preparations of engineered mammalian cells
From the text: This feature, coupled with the medically significant connection between AMPA-type receptors and neurological disorders and disease indicate that the present receptors, as well as AMPA-binding fragments and variants thereof, will serve as valuable tools in the screening and discovery of ligands useful to modulate in vivo interactions between such receptors and their natural ligand, glutamate. Thus, a key aspect of the present invention resides in the construction of cells that are engineered genetically to produce human GluR3 receptor, to serve as a ready and homogeneous source of receptor for use in in vitro ligand binding and/or channel activation assays.

[3] = system: human GluR3 receptor; assay: ligand binding assay (NMDA), membranes of transfected COS cells; conditions: COS cell membranes
[4] = system: human GluR3A receptor; assay: kainate-binding assay, membranes of transfected COS-1 cells; conditions: COS cell membranes; [vinylidene-3H] kainic acid 5 nM
Protocol: as §1, §2
For kainate-binding assays, incubation mixtures consisted of 25-100 ug tissue protein and [vinylidene-3H] kainic acid (58 Ci/mmole, 5 nM final) in the cold incubation buffer, 1 ml final volume. Non-specific binding was determined in the presence of 1 mM L-glutamate. Samples were incubated as for the AMPA-binding assays, and bound and free ligand were separated by rapid filtration using a Brandel cell harvester and GF/B filters pre-soaked in ice-cold 0.3% polyethyleneimine. Filters were washed twice in 6 ml of the cold incubation buffer, then placed in scintillation vials with 5 ml of Beckman Ready-Protein Plus scintillation cocktail for counting.

Compound: Cc1onc(O)c1CC(N)C(=O)O (stereo not drawn) [AMPA, alpha-amino-3-hydroxy-5-methyl-isoxazole-4propionate]
- specific binding ([1]; 10 nM [3H]-AMPA, COS cell membranes, non-specific binding with 1 mM L-glutamate, FIG. 7): 25-30 fmole/mg protein
- selective binding relative to kainate and NMDA ([1]; human GluR3A, membrane preparations): bind selectively
- selective binding relative to kainate and NMDA [2]: bind selectively

Compound: CN[C@H](CC(=O)O)C(=O)O [NMDA, N-methyl-D-aspartate]
- binding of NMDA [3]: little or no demonstrable binding

Compound: C=C(C)[C@H]1CN[C@H](C(=O)O)[C@H]1CC(=O)O [kainate, kainic acid]
- binding of kainate [4]: little or no demonstrable binding
